Patent publication US9782345B2, “Ocular composition and method” (Jade Therapeutics, Inc, priority 2013, dated 2017)

Assay: Tobramycin release study from CMHA-S/PEGDA films (OPA fluorescence assay)
Type: physicochemical
Procedure: Tobramycin sulfate (2 mg/film) and tobramycin free base (2 mg/film) were used for this study. As tobramycin absorbs UV weakly, OPA assay and measuring fluorescence were used to calculate cumulative release of tobramycin. Amount of release tobramycin was calculated from standard curve. The accumulated release amount of tobramycin was more than 1 mg (thus more than 50% release) over 7 days.
Drug-loaded films were placed in PBS for the antibiotic release study. The fluid was removed and assayed daily. For tobramycin, detection was performed using an O-phthaldialdehyde (OPA) reagent. OPA, in the presence of reduced sulfhydryl groups, reacts with the primary amine group in tobramycin to form fluorescent moieties. The fluorescence was measured at an excitation wavelength of 360 nm, and an emission wavelength of 460 nm. The amount of released drug was calculated using a standard solution of tobramycin. For moxifloxacin, UV absorption at 293 nm was used to measure the amount of released drug. The amount of released drug was calculated using a standard solution of moxifloxacin. This removed fluid was also used to assess the bactericidal capability of released antibiotic by the disk diffusion method on agar plates seeded with S. aureus and P. aeruginosa measuring zone of inhibition (ZOI). Similar ZOI bacterial work was also performed using the actual films by an outside lab, Analytical Resource Lab (ARL, Salt Lake City, Utah).
Each film contained 40 μg of tobramycin free base. CMHA-S films were made with 3 different crosslinking ratios: 1.5, 2.0, or 2.5. As tobramycin absorbs UV weakly, OPA assay was used to measure fluorescence using low concentrations of tobramycin. The amount of released tobramycin was calculated from a standard curve. The accumulated released amount of tobramycin was more than 20 μg (thus more than 50% release) over 7 days. The release increased continuously up to day 3 and remained unchanged for the different thiol to acrylate ratios.

NC[C@H]1O[C@H](O[C@H]2[C@H](O)[C@@H](O[C@H]3O[C@H](CO)[C@@H](O)[C@H](N)[C@H]3O)[C@H](N)C[C@@H]2N)[C@H](N)C[C@@H]1O [tobramycin]
release of tobramycin (share of load) (40 μg tobramycin free base per film, over 7 days (FIG. 5)): more than 50% | accumulated released amount of tobramycin (40 μg tobramycin free base per film, thiol to acrylate 1.5, 2.0, 2.5, over 7 days (FIG. 5)): more than 20 μg | accumulated release amount of tobramycin (2 mg/film tobramycin sulfate or free base, thiol to acrylate 1.5 and 2.0, over 7 days (FIG. 3)): more than 1 mg | release of tobramycin (share of load) (2 mg/film, over 7 days (FIG. 3)): more than 50%
